Converted amounts (≈) assume the structure as drawn. Read-outs that look alike come from different tables or passages of the source.
Experiments:
Assay type in all cases: cell-based
[1] = tested on: Pseudomonas aeruginosa ATCC 27853 planktonic and biofilm bacteria; conditions: LB+B1, 24 h exposure; for MIC: P. aeruginosa ATCC 27853; for MBEC: P. aeruginosa ATCC 27853 biofilm; for MBC: P. aeruginosa ATCC 27853 planktonic
[2] = tested on: Escherichia coli JM109 planktonic and biofilm bacteria; conditions: LB+B1, 24 h exposure; for MIC: E. coli JM109; for MBEC: E. coli JM109 biofilm; for MBC: E. coli JM109 planktonic
[3] = tested on: Staphylococcus aureus ATCC 29213 planktonic and biofilm bacteria; conditions: LB+B1, 24 h exposure; for MIC: S. aureus ATCC 29213; for MBEC: S. aureus ATCC 29213 biofilm; for MBC: S. aureus ATCC 29213 planktonic
[4] = tested on: Pseudomonas aeruginosa ATCC 27853 planktonic and biofilm bacteria; assay: MBEC-HTP antibiotic susceptibility, P. aeruginosa; conditions: for MBEC: P. aeruginosa ATCC 27853 biofilm
Method: (§1) Luria-Bertani medium was chosen for two reasons: 1) its established use in studies of metal resistance, and 2) because of the use of rich media in NCCLS testing protocols for antimicrobial resistance. Antibiotic resistance assays were performed using cation-adjusted Mueller-Hinton broth (CA-MHB, BDH Inc.) and subcultures, MBC and MBEC bacterial counts were performed using trypticase soy agar (TSA, Difco).
(§2) The present study used a novel high throughput method for screening biofilm susceptibility to metal cations and oxyanions: the MBEC device (MBEC Bioproducts Inc., Edmonton, Alberta, Canada, http://www.mbec.ca). The MBEC high throughput (MBEC-HTP) assay system consists of a shallow trough into which a plastic lid with 96 pegs fits. This peg lid also fits over a standard 96-well microtitre plate which can subsequently be used to setup serial dilutions of antimicrobial compounds. The bottom half of the MBEC device is a trough that has shallow channels that direct flow of an inoculated suspension over the pegs on the lid.
(§3) The inoculum was standardized to a 1.0 McFarland standard and verified by viable counts. The 1.0 McFarland standard inoculum was diluted 30-fold with growth media, which served as the growth suspension to inoculate the MBECJ device.
(§4) P. aeruginosa was incubated for 9 h, S. aureus for 24 h and E. coli for 24 h to generate approximately equivalent biofilms of 6.0×10^6 cfu/peg. Following the incubation period, growth of biofilm and planktonic cultures in the MBECJ device were discerned and verified by viable cell counts.
(§5) Chloramphenicol (Sigma) was prepared in 50% ethanol and treated identically to the other antibiotics. 10% ethanol was added to the growth controls for chloramphenicol assays. […] Starting with the working solutions, serial two-fold dilutions were made in the wells of a 96-well plate (the challenge plate), leaving the first well of each row as a sterility control and the second as a growth control (i.e. no antibiotic).

[5] = tested on: Staphylococcus aureus ATCC 29213 planktonic and biofilm bacteria; assay: MBEC-HTP antibiotic susceptibility, S. aureus; conditions: CA-MHB, 24 h exposure; for MIC: S. aureus ATCC 29213; for MBEC: S. aureus ATCC 29213 biofilm; for MBC: S. aureus ATCC 29213 planktonic
Method: as §1, §2, §3, §4, §5

[6] = tested on: Pseudomonas aeruginosa biofilms; assay: Metal and antibiotic combination assay; conditions: for MBC / MIC / MBEC: median of 4 replicates
Method: Cells were grown to a mean density of 6.0×10^6 cfu/peg in LB+B1 media.
• 1. […] All data are median values based on 4 replicates.

[7] = tested on: Escherichia coli JM109 planktonic and biofilm bacteria; assay: MBEC-HTP antibiotic susceptibility, E. coli; conditions: for MBEC: E. coli JM109 biofilm
Method: as §1, §2, §3, §4, §5

[8] = antibiotic in combination with 500 μg/ml Zn^2+
[9] = antibiotic or heavy metal alone, LB+B1
[10] = Pseudomonas aeruginosa, ATCC27853, P. aeruginosa ATCC 27853, CA-MHB, 24 h exposure, read-out: MIC
[11] = Pseudomonas aeruginosa, ATCC27853, P. aeruginosa ATCC 27853 planktonic, CA-MHB, 24 h exposure, read-out: MBC
[12] = Pseudomonas aeruginosa, ATCC27853, 24 h

O=[Te](=O)([O-])[O-].[K+].[K+] [TeO4^2−, potassium tellurate]
MIC [1]: >1.3 mM | MBEC [1]: >1.3 mM | MBC [1]: >1.3 mM | MIC [2]: 0.06 ± 0.02 mM | MBEC [2]: 0.42 ± 0.17 mM | MBC [2]: 0.42 ± 0.17 mM | MIC [3]: 0.67 ± 0 mM | MBEC [3]: 1.3 ± 0.7 mM | MBC [3]: >1.3 mM

Gentamicin
MIC ([4]; P. aeruginosa ATCC 27853, CA-MHB, 24 h exposure): 10 ± 4 µg/mL | MBEC ([4]; CA-MHB, 24 h exposure): >1024 µg/mL | MBC ([4]; P. aeruginosa ATCC 27853 planktonic, CA-MHB, 24 h exposure): 28 ± 8 µg/mL | MIC [5]: <2 µg/mL | MBEC [5]: 3.5 ± 1 µg/mL | MBC [5]: 4 ± 0 µg/mL | MBC [6, 8]: 128 µg/mL | MIC [6, 8]: 64 µg/mL | MBC [6, 9]: 32 µg/mL | MBEC [6, 9]: >1024 µg/mL | MIC [6, 9]: 8 µg/mL

O=[Se](O)O [SeO3^2−, selenous acid]
MIC [1]: 28 ± 8 mM (≈ 3610 µg/mL) | MBEC [1]: 28 ± 8 mM | MBC [1]: 28 ± 8 mM (≈ 3610 µg/mL) | MIC [2]: 8.1 ± 0 mM (≈ 1040 µg/mL) | MBEC [2]: 8.1 ± 0 mM | MBC [2]: 8.1 ± 0 mM (≈ 1040 µg/mL) | MIC [3]: 16 ± 0 mM (≈ 2060 µg/mL) | MBEC [3]: 16 ± 0 mM | MBC [3]: 16 ± 0 mM (≈ 2060 µg/mL)

O=C(N[C@H](CO)[C@H](O)c1ccc([N+](=O)[O-])cc1)C(Cl)Cl [Chloramphenicol]
MBEC ([7]; CA-MHB, 24 h exposure): >256 µg/mL | MIC ([7]; Escherichia coli, E. coli JM109, CA-MHB, 24 h exposure, read-out: MIC): 3.5 ± 1 µg/mL (≈ 10.8 µM) | MBC ([7]; Escherichia coli, E. coli JM109 planktonic, CA-MHB, 24 h exposure, read-out: MBC): 128 µg/mL (≈ 396 µM) | MBEC ([4]; CA-MHB, 24 h exposure): >512 µg/mL | MIC [4, 10]: > 512 µg/mL | MBC [4, 11]: > 512 µg/mL | MBEC [5]: >1024 µg/mL | MIC ([5]; Staphylococcus aureus, ATCC29213, read-out: MIC): 80 ± 32 µg/mL (≈ 248 µM) | MBC ([5]; Staphylococcus aureus, ATCC29213, read-out: MBC): 1020 µg/mL (≈ 3170 µM)

NCC[C@H](O)C(=O)N[C@@H]1C[C@H](N)[C@@H](O[C@H]2O[C@H](CN)[C@@H](O)[C@H](O)[C@H]2O)[C@H](O)[C@H]1O[C@H]1O[C@H](CO)[C@@H](O)[C@H](N)[C@H]1O [Amikacin]
MBEC ([4]; CA-MHB, 24 h exposure): >512 µg/mL | MIC [4, 10]: 32 µg/mL (≈ 54.6 µM) | MBC [4, 11]: 224 ± 64 µg/mL (≈ 383 µM) | MIC in the presence of Cu^2+, times less than the MIC for the antibiotic alone ([6]; 200 μg/ml Cu^2+): 256 times | MBC ([6]; Pseudomonas aeruginosa, antibiotic in combination with 200 μg/ml Cu^2+, read-out: MBC): > 64 µg/mL | MIC ([6]; Pseudomonas aeruginosa, antibiotic in combination with 200 μg/ml Cu^2+, read-out: MIC): 0.125 µg/mL | MBC ([6]; Pseudomonas aeruginosa, antibiotic or heavy metal alone, LB+B1, read-out: MBC): 256 µg/mL | MIC ([6]; Pseudomonas aeruginosa, antibiotic or heavy metal alone, LB+B1, read-out: MIC): 32 µg/mL | MBEC ([6]; antibiotic in combination with 200 μg/ml Cu^2+): >64 µg/mL | MBEC [6, 9]: >512 µg/mL

[Na+].[Na+].[O]=[Mo](=[O])([O-])[O-] [MoO4^2−, sodium molybdate]
MIC [1]: >102 mM | MBEC [1]: >102 mM | MBC [1]: >102 mM | MIC [2]: >102 mM | MBEC [2]: >102 mM | MBC [2]: >102 mM | MIC [3]: >102 mM | MBEC [3]: >102 mM | MBC [3]: >102 mM

CCN1CCN(C(=O)N[C@@H](C(=O)N[C@@H]2C(=O)N3[C@@H]2SC(C)(C)[C@@H]3C(=O)O)c2ccccc2)C(=O)C1=O [Pipperacillin, Piperacillin]
MIC ([7]; E. coli JM109, CA-MHB, 24 h exposure): 4 ± 0 µg/mL (≈ 7.73 µM) | MBEC ([7]; CA-MHB, 24 h exposure): 32 ± 0 µg/mL | MBC ([7]; E. coli JM109 planktonic, CA-MHB, 24 h exposure): 16 ± 0 µg/mL (≈ 30.9 µM)

CC1(C)S[C@@H]2[C@H](NC(=O)[C@H](N)c3ccccc3)C(=O)N2[C@H]1C(=O)O [Ampicillin]
MBEC ([7]; CA-MHB, 24 h exposure): 1024 ± 0 µg/mL | MBC ([7]; Escherichia coli, 24 h): 64 µg/mL (≈ 183 µM) | MIC ([7]; Escherichia coli, 24 h): 4 µg/mL (≈ 11.4 µM) | MBEC ([4]; CA-MHB, 24 h exposure): >512 µg/mL | MBC [4, 12]: > 512 µg/mL | MIC [4, 12]: > 512 µg/mL

Sodium arsenite [AsO2^−]
MIC [1]: >77 mM | MBEC [1]: >77 mM | MBC [1]: >77 mM | MIC [2]: 2.4 ± 0 mM | MBEC [2]: 77 ± 0 mM | MBC [2]: 77 ± 0 mM | MIC [3]: 9.6 ± 0 mM | MBEC [3]: >77 mM | MBC [3]: >77 mM

O=[Te]([O-])[O-].[K+].[K+] [TeO3^2−, potassium tellurite]
MIC [1]: 0.73 ± 0 mM | MBEC [1]: 4.4 ± 1.7 mM | MBC [1]: 5.1 ± 0 mM | MIC [2]: 0.006 mM | MBEC [2]: 0.014 mM | MBC [2]: 0.016 mM | MIC [3]: 0.18 ± 0 mM | MBEC [3]: 0.73 ± 0 mM | MBC [3]: >0.73 mM

[Cl][Hg][Cl] [Hg^2+, mercuric chloride]
MIC [1]: 0.38 ± 0.14 mM | MBEC [1]: 0.43 ± 0.16 mM | MBC [1]: 0.53 ± 0.39 mM | MIC [2]: 0.07 ± 0.05 mM | MBEC [2]: 0.07 ± 0.05 mM | MBC [2]: 0.07 ± 0.05 mM | MIC [3]: 0.020 mM | MBEC [3]: 0.080 ± 0 mM | MBC [3]: 0.080 ± 0 mM

[Na+].[Na+].[O]=[W](=[O])([O-])[O-] [WO4^2−, sodium tungstate]
MIC [1]: >66 mM | MBEC [1]: >66 mM | MBC [1]: >66 mM | MIC [2]: >66 mM | MBEC [2]: >66 mM | MBC [2]: >66 mM | MIC [3]: >66 mM | MBEC [3]: >66 mM | MBC [3]: >66 mM

O=[N+]([O-])[O-].[Ag+] [Ag^+, silver nitrate]
MIC [1]: 0.30 ± 0 mM | MBEC [1]: 0.40 ± 0.17 mM | MBC [1]: 0.30 ± 0 mM | MIC [2]: 0.06 ± 0.02 mM | MBEC [2]: 0.07 ± 0.02 mM | MBC [2]: 0.09 ± 0.04 mM | MIC [3]: 0.30 ± 0 mM | MBEC [3]: >9.5 mM | MBC [3]: 9.5 ± 0 mM

Sodium hydrogen arsenate [AsO4^2−]
MIC [1]: >59 mM | MBEC [1]: >59 mM | MBC [1]: >59 mM | MIC [2]: 7.4 ± 0 mM | MBEC [2]: >60 mM | MBC [2]: >60 mM | MIC [3]: 15 ± 0 mM | MBEC [3]: >59 mM | MBC [3]: >59 mM

[Cl][Sn][Cl] [Sn^2+, stannous chloride]
MIC [1]: 17 ± 0 mM | MBEC [1]: 17 ± 0 mM | MBC [1]: 22 ± 9 mM | MBEC [2]: 17 ± 0 mM | MBC [2]: 17 ± 0 mM | MIC [3]: 8.6 ± 0 mM | MBEC [3]: 17.3 ± 0 mM | MBC [3]: 17.3 ± 0 mM

[Cl][Cd][Cl] [Cd^2+, Cadmium chloride]
MIC [1]: 4.6 ± 0 mM | MBEC [1]: 36 ± 0 mM | MBC [1]: 36 ± 0 mM | MIC [2]: 1.1 ± 0 mM | MBEC [2]: 2.3 ± 0 mM | MBC [2]: 2.3 ± 0 mM | MIC [3]: 0.25 ± 0.07 mM | MBEC [3]: 15.9 ± 4.6 mM | MBC [3]: 18.2 ± 0 mM

O=S(=O)([O-])[O-].[Mn+2] [Mn^2+, manganous sulfate]
MIC [1]: >149 mM | MBEC [1]: >149 mM | MBC [1]: >149 mM | MIC [2]: 37 ± 0 mM | MBEC [2]: 199 ± 86 mM | MBC [2]: 199 ± 86 mM | MIC [3]: 12 ± 5 mM | MBEC [3]: >149 mM | MBC [3]: >149 mM
